Patent publication US8951964B2, “Phenanthridine macrocyclic hepatitis C serine protease inhibitors” (priority 2010, dated 2015)

Tests used:
Type in all cases: cell-based, HCV
[1] = tested on: genotype 3a NS3 gene in transient replicon; test: 3a transient replicon (luciferase reporter); details: Hepatitis C virus, Huh-7, read-out: 3a transient replicon (nM)
[2] = tested on: genotype 1a replicon (1a-H77); test: 1a stable replicon (luciferase reporter); details: Hepatitis C virus, Huh-7, luciferase reporter, HuH-7 cells, 5% FBS
[3] = tested on: genotype 1a transient replicon (1a-H77); test: 1a transient replicon (luciferase reporter); details: Hepatitis C virus, HuH-7 cells, 5% FBS
[4] = tested on: genotype 1b transient replicon; test: 1b transient replicon (luciferase reporter); details: Hepatitis C virus, HuH-7 cells, 5% FBS
[5] = tested on: genotype 1b replicon (1b-Con1, 1b-N); test: 1b stable replicon (luciferase reporter); details: Hepatitis C virus, HuH-7 cells, 5% FBS

Structure (SMILES) | EC50 [1] [nM] | EC50 [2] [nM] | EC50 [3] [nM] | EC50 [4] [nM] | EC50 [5] [nM]
Cc1cc(C(=O)N[C@H]2CCCCC/C=C\[C@@H]3C[C@@]3(C(=O)NS(=O)(=O)C3CC3)NC(=O)[C@@H]3C[C@@H](Oc4nc5cc(F)ccc5c5cc(F)ccc45)CN3C2=O)no1 | > 1 | 0.1 to 0.5 | 0.1 to 0.5 | 0.1 to 0.5 | 0.1 to 0.5
Cc1cc(C(=O)N[C@H]2CCCCC/C=C\[C@@H]3C[C@@]3(C(=O)NS(=O)(=O)C3(C)CC3)NC(=O)[C@@H]3C[C@@H](Oc4nc5cc(F)ccc5c5ccccc45)CN3C2=O)no1 | > 1 | 0.1 to 0.5 | < 0.1 | 0.1 to 0.5 | 0.1 to 0.5
Cc1cc(C(=O)N[C@H]2CCCCC/C=C\[C@@H]3C[C@@]3(C(=O)NS(=O)(=O)C3CC3)NC(=O)[C@@H]3C[C@@H](Oc4nc5cccc(F)c5c5ccccc45)CN3C2=O)no1 | > 1 | 0.5 to 1 | < 0.1 | 0.1 to 0.5 | 0.1 to 0.5
Cc1cc(C(=O)N[C@H]2CCCCC/C=C\[C@@H]3C[C@@]3(C(=O)NS(=O)(=O)C3CC3)NC(=O)[C@@H]3C[C@@H](Oc4nc5ccccc5c5ccc(F)cc45)CN3C2=O)no1 | > 1 | 0.1 to 0.5 | < 0.1 | 0.1 to 0.5 | 0.1 to 0.5
Cc1cc(C(=O)N[C@H]2CCCCC/C=C\[C@@H]3C[C@@]3(C(=O)NS(=O)(=O)C3CC3)NC(=O)[C@@H]3C[C@@H](Oc4nc5cc(F)c(F)cc5c5ccc(OC(F)(F)F)cc45)CN3C2=O)no1 | > 1 | 0.5 to 1 | < 0.1 | < 0.1 | 0.5 to 1
CC1(S(=O)(=O)NC(=O)[C@@]23C[C@H]2/C=C\CCCCC[C@H](NC(=O)[C@H](O)C(F)(F)F)C(=O)N2C[C@H](Oc4nc5cc(F)ccc5c5ccccc45)C[C@H]2C(=O)N3)CC1 | > 1 | 0.1 to 0.5 | < 0.1 | < 0.1 | 0.1 to 0.5
Cc1cc(C(=O)N[C@H]2CCCCC/C=C\[C@@H]3C[C@@]3(C(=O)NS(=O)(=O)C3(C)CC3)NC(=O)[C@@H]3C[C@@H](Oc4nc5ccccc5c5ccc(F)cc45)CN3C2=O)no1 | > 1 | 0.5 to 1 | < 0.1 | 0.1 to 0.5 | 0.5 to 1
Cn1ccc(C(=O)N[C@H]2CCCCC/C=C\[C@@H]3C[C@@]3(C(=O)NS(=O)(=O)C3(C)CC3)NC(=O)[C@@H]3C[C@@H](Oc4nc5cc(F)ccc5c5ccccc45)CN3C2=O)n1 | 0.1 to 0.5 | 0.5 to 1 | 0.1 to 0.5 | 0.1 to 0.5 | 0.1 to 0.5
Cc1cc(C(=O)N[C@H]2CCCCC/C=C\[C@@H]3C[C@@]3(C(=O)NS(=O)(=O)C3(C)CC3)NC(=O)[C@@H]3C[C@@H](Oc4nc5ccccc5c5cc(F)ccc45)CN3C2=O)no1 | > 1 | 0.5 to 1 | – | – | 0.1 to 0.5
COc1ccc2c(c1)c(O[C@@H]1C[C@H]3C(=O)N[C@]4(C(=O)NS(=O)(=O)C5CC5)C[C@H]4/C=C\CCCCC[C@H](NC(=O)c4cc(C)on4)C(=O)N3C1)nc1ccccc12 | > 1 | 0.1 to 0.5 | < 0.1 | 0.1 to 0.5 | 0.5 to 1
Cn1ccc(C(=O)N[C@H]2CCCCC/C=C\[C@@H]3C[C@@]3(C(=O)NS(=O)(=O)C3(C)CC3)NC(=O)[C@@H]3C[C@@H](Oc4nc5ccccc5c5ccc(F)cc45)CN3C2=O)n1 | 0.5 to 1 | 0.1 to 0.5 | 0.1 to 0.5 | 0.1 to 0.5 | < 0.1
Cn1ccc(C(=O)N[C@H]2CCCCC/C=C\[C@@H]3C[C@@]3(C(=O)NS(=O)(=O)C3(C)CC3)NC(=O)[C@@H]3C[C@@H](Oc4nc5ccccc5c5cc(F)ccc45)CN3C2=O)n1 | 0.5 to 1 | 0.5 to 1 | 0.1 to 0.5 | 0.1 to 0.5 | 0.1 to 0.5
CC1(S(=O)(=O)NC(=O)[C@@]23C[C@H]2/C=C\CCCCC[C@H](NC(=O)c2cncs2)C(=O)N2C[C@H](Oc4nc5cc(F)ccc5c5ccccc45)C[C@H]2C(=O)N3)CC1 | > 1 | 0.5 to 1 | < 0.1 | 0.1 to 0.5 | 0.5 to 1
COc1ccc2c(c1)c(O[C@@H]1C[C@H]3C(=O)N[C@]4(C(=O)NS(=O)(=O)C5CC5)C[C@H]4/C=C\CCCCC[C@H](NC(=O)c4cc(C)on4)C(=O)N3C1)nc1cc(F)ccc12 | > 1 | 0.5 to 1 | – | – | 0.5 to 1
COc1ccc2c(c1)c(O[C@@H]1C[C@H]3C(=O)N[C@]4(C(=O)NS(=O)(=O)C5CC5)C[C@H]4/C=C\CCCCC[C@H](NC(=O)c4cc(C)on4)C(=O)N3C1)nc1cc(OC(F)(F)F)ccc12 | 0.5 to 1 | 0.5 to 1 | < 0.1 | < 0.1 | 0.1 to 0.5
Cc1cc(C(=O)N[C@H]2CCCCC/C=C\[C@@H]3C[C@@]3(C(=O)NS(=O)(=O)C3CC3)NC(=O)[C@@H]3C[C@@H](Oc4nc5cc(OC(F)(F)F)ccc5c5ccccc45)CN3C2=O)no1 | 0.5 to 1 | 0.5 to 1 | < 0.1 | < 0.1 | 0.1 to 0.5

Structure (SMILES) | EC50 [1] [nM] | EC50 [2] [nM] | EC50 [3] [nM] | EC50 [4] [nM] | EC50 [5] [nM]
Cc1cc(C(=O)N[C@H]2CCCCC/C=C\[C@@H]3C[C@@]3(C(=O)NS(=O)(=O)C3(C)CC3)NC(=O)[C@@H]3C[C@@H](Oc4nc5cc(OC(F)(F)F)ccc5c5ccccc45)CN3C2=O)no1 | > 1 | 0.5 to 1 | 0.1 to 0.5 | 0.1 to 0.5 | 0.1 to 0.5
Cc1cc(C(=O)N[C@H]2CCCCC/C=C\[C@@H]3C[C@@]3(C(=O)NS(=O)(=O)C3CC3)NC(=O)[C@@H]3C[C@@H](Oc4nc5ccccc5c5cccc(F)c45)CN3C2=O)no1 | > 1 | 0.1 to 0.5 | < 0.1 | 0.1 to 0.5 | 0.1 to 0.5
CC1(S(=O)(=O)NC(=O)[C@@]23C[C@H]2/C=C\CCCCC[C@H](NC(=O)c2cscn2)C(=O)N2C[C@H](Oc4nc5cc(F)ccc5c5cc(F)ccc45)C[C@H]2C(=O)N3)CC1 | > 1 | 0.5 to 1 | < 0.1 | 0.1 to 0.5 | 0.1 to 0.5
CC1(S(=O)(=O)NC(=O)[C@@]23C[C@H]2/C=C\CCCCC[C@H](NC(=O)c2cncs2)C(=O)N2C[C@H](Oc4nc5cc(F)ccc5c5cc(F)ccc45)C[C@H]2C(=O)N3)CC1 | > 1 | > 1 | < 0.1 | 0.1 to 0.5 | 0.1 to 0.5
CC1(S(=O)(=O)NC(=O)[C@@]23C[C@H]2/C=C\CCCCC[C@H](NC(=O)c2cscn2)C(=O)N2C[C@H](Oc4nc5ccccc5c5cc(F)ccc45)C[C@H]2C(=O)N3)CC1 | > 1 | 0.5 to 1 | 0.1 to 0.5 | 0.1 to 0.5 | 0.1 to 0.5
CC1(S(=O)(=O)NC(=O)[C@@]23C[C@H]2/C=C\CCCCC[C@H](NC(=O)c2cncs2)C(=O)N2C[C@H](Oc4nc5ccccc5c5cc(F)ccc45)C[C@H]2C(=O)N3)CC1 | > 1 | 0.5 to 1 | < 0.1 | 0.1 to 0.5 | 0.1 to 0.5
CC1(S(=O)(=O)NC(=O)[C@@]23C[C@H]2/C=C\CCCCC[C@H](NC(=O)c2ccns2)C(=O)N2C[C@H](Oc4nc5cc(F)ccc5c5ccccc45)C[C@H]2C(=O)N3)CC1 | > 1 | 0.5 to 1 | < 0.1 | 0.1 to 0.5 | 0.1 to 0.5
CC1(S(=O)(=O)NC(=O)[C@@]23C[C@H]2/C=C\CCCCC[C@H](NC(=O)c2ccon2)C(=O)N2C[C@H](Oc4nc5cc(F)ccc5c5ccccc45)C[C@H]2C(=O)N3)CC1 | 0.5 to 1 | 0.1 to 0.5 | < 0.1 | 0.1 to 0.5 | 0.1 to 0.5
CC1(S(=O)(=O)NC(=O)[C@@]23C[C@H]2/C=C\CCCCC[C@H](NC(=O)[C@@H](O)C(F)(F)F)C(=O)N2C[C@H](Oc4nc5cc(F)ccc5c5ccccc45)C[C@H]2C(=O)N3)CC1 | > 1 | 0.5 to 1 | < 0.1 | 0.1 to 0.5 | 0.1 to 0.5
Cc1cc(C(=O)N[C@H]2CCCCC/C=C\[C@@H]3C[C@@]3(C(=O)NS(=O)(=O)C3CC3)NC(=O)[C@@H]3C[C@@H](Oc4nc5cc(F)ccc5c5ccccc45)CN3C2=O)no1 | > 1 | 0.1 to 0.5 | – | – | 0.1 to 0.5
Cn1ccc(C(=O)N[C@H]2CCCCC/C=C\[C@@H]3C[C@@]3(C(=O)NS(=O)(=O)C3CC3)NC(=O)[C@@H]3C[C@@H](Oc4nc5cc(F)ccc5c5ccccc45)CN3C2=O)n1 | – | 0.1 to 0.5 | 0.1 to 0.5 | 0.1 to 0.5 | < 0.1
CC1(S(=O)(=O)NC(=O)[C@@]23C[C@H]2/C=C\CCCCC[C@H](NC(=O)c2ccn(C(F)F)n2)C(=O)N2C[C@H](Oc4nc5cc(F)ccc5c5ccccc45)C[C@H]2C(=O)N3)CC1 | – | 0.5 to 1 | 0.1 to 0.5 | 0.1 to 0.5 | 0.1 to 0.5
Cn1ccc(C(=O)N[C@H]2CCCCC/C=C\[C@@H]3C[C@@]3(C(=O)NS(=O)(=O)C3CC3)NC(=O)[C@@H]3C[C@@H](Oc4nc5cc(F)ccc5c5cc(F)ccc45)CN3C2=O)n1 | – | 0.5 to 1 | 0.1 to 0.5 | 0.1 to 0.5 | < 0.1
Cn1ccc(C(=O)N[C@H]2CCCCC/C=C\[C@@H]3C[C@@]3(C(=O)NS(=O)(=O)C3CC3)NC(=O)[C@@H]3C[C@@H](Oc4nc5cccc(F)c5c5ccccc45)CN3C2=O)n1 | – | 0.5 to 1 | 0.5 to 1 | 0.1 to 0.5 | < 0.1
Cn1ccc(C(=O)N[C@H]2CCCCC/C=C\[C@@H]3C[C@@]3(C(=O)NS(=O)(=O)C3CC3)NC(=O)[C@@H]3C[C@@H](Oc4nc5ccccc5c5cccc(F)c45)CN3C2=O)n1 | – | 0.5 to 1 | 0.1 to 0.5 | 0.5 to 1 | < 0.1
COc1ccc2c(c1)nc(O[C@@H]1C[C@H]3C(=O)N[C@]4(C(=O)NS(=O)(=O)C5CC5)C[C@H]4/C=C\CCCCC[C@H](NC(=O)c4cc(C)on4)C(=O)N3C1)c1ccc(F)cc12 | > 1 | 0.1 to 0.5 | – | – | 0.1 to 0.5
